Experimental data published in patent US20250290915A1, “METHOD FOR PREDICTING RESPONSIVENESS TO THERAPY” (CANCERTAIN LIMITED, priority 2022, published 2025).

Key:
Format in all cases: cell-based, human
[1] = test system: Cancer Cells from tissue sample (CSCs, tumour marker+ cells) of a patient with GI cancer (Cholangio Carcinoma, stage 4); experiment: Drug response score assay on tissue sample, Example 9; conditions: for effectiveness on Cancer Cells from tissue sample under laboratory conditions: GI cancer (Cholangio Carcinoma) tissue sample; for Drug response score, conc. 1 / Drug response score, conc. 2 / Drug response score, conc. 3 / Drug response score, conc. 4 / Drug sensitivity as calculated by the assay, Tissue: tissue sample; for Drug response score, conc. 1: conc. 1 per Table 27B: Pem 20, Niv 20, Atez 100, Pacli 0.05, Irino 5, Beva 1 μg/ml, Len 50, 5-FU 250 ng/ml; for Drug response score, conc. 2: conc. 2 per Table 27B: Pem 40, Niv 40, Atez 200, Pacli 0.1, Irino 10, Beva 2 μg/ml, Len 100, 5-FU 500 ng/ml; for Drug response score, conc. 3: conc. 3 per Table 27B: Pem 100, Niv 80, Atez 400, Pacli 0.2, Irino 25, Beva 4 μg/ml, Len 200, 5-FU 1000 ng/ml; for Drug response score, conc. 4: conc. 4 per Table 27B: Pem 160, Niv 160, Atez 800, Pacli 1, Irino 50, Beva 8 μg/ml, Len 400, 5-FU 2000 ng/ml; for Drug sensitivity as calculated by the assay, Tissue: interpretation based on Drug Response Scores
Method: Where a tissue sample was provided by each subject, cancer stem cells (CSCs, CD133^+), were isolated from said sample. Tumour marker cells were further isolated from each tissue sample. The remaining cells were designated tumour marker^+ cells.
First, disaggregation of the tissue samples was carried out. Disaggregation was dependent on the size of the tissue sample and the method of retrieval: • EBUS (Endobronchial Ultrasound Scan and Biopsy)—very small fragments of tissue in solution-spun at 1200 rpm for 5 minutes to collect tissue pellet • Bronchoscopy-larger fragments with larger amount of blood vessels • Broncho-lavage-similar to EBUS, spun at 1200 rpm for 5 minutes to collet tissue pellet
Once a pellet of tissue obtained, DMEM added to the tissue pellet and the material forced through a […] Smart strainer. Once a cell suspension was achieved, this was spun at 1200 rpm for 5 minutes and the supernatant removed. The cells were then resuspended to a volume of 60 μl.
20 μl of FcR block and 20 μl of CD133 microbeads were added to the resuspended cells, followed by incubation for 15 minutes at 4° C. The cells were then processed using an AutoMACS machine. This separates the […] into CD133^+ and CD133^− cells in 2 separate falcons. The falcon tubes are then centrifuged at 1200 rpm for 5 minutes.
The supernatant was removed from the CD133+falcon tube, and the cells resuspended in DMEM with 2 μl Cell Tox, 2 μl MT and 2 μl MT. 20 μl of the resuspended […] was then plated in each well which will contain an immunotherapy treatment.
The supernatant was removed from the CD133^− falcon tube, and the CD133^− cells contacted with 40 μl of a tumour separation microbeads cocktail containing microbeads bound to anti-CD31, anti-CD45, anti-Glycophorin-A (Gly-A) and an anti-fibroblast antibody.
This cocktail is used to separate out tumour marker cells using MACS, by separating out CD31^+, CD45^+ and Gly-A^+ cells. In addition, anti-fibroblast antibody-labelled beads are also used. The cocktail is added to the CD133^− falcon tube, followed by incubation for 15 minutes at 4° C. MACS is carried out using an AutoMACS machine. This cells which are not bound by the CD31, CD45, Gly-A and anti-fibroblast antibody beads are the tumour marker^+ cells.
(§1) The different cell types were each divided equally into populations, depending on the number of drugs/concentrations to be tested and plated on a cell-culture plate pre-coated with a scaffold of polycaprolactone (PCL) electrospun fibres and incubated at 37° C., 5% CO2, for 5 to (typically 10) minutes to facilitate cell attachment. After attachment, an initial imaging step was carried out using the RealTime-Glo™ MT assay from Promega (Catalogue No. G9711)) and the CellTox™ Green Cytotoxicity Assay (Promega, Catalogue No. G8741), carried out according to manufacturer's instructions. Following this initial imagining, the immunotherapeutic and/or chemotherapeutic agents were added to the cell populations as indicated below. After 10 minutes, the imagining step was repeated. The cell populations were then incubated at 37° C., 5% CO2 for 48 hours. The imaging step was then repeated. The cell populations were then re-dosed with the same immunotherapeutic and/or chemotherapeutic agents as indicated below, and incubated at 37° C., 5% CO2 for a further 48 hours. After this second 48 hour incubation, the imagining step was repeated for a final time.
At the end of this culture period, dose response scores were calculated using a normalized drug response metric as described in Gupta et al. (Communications Biology volume 3, Article number: 42 (2020), https://doi.org/10.1038/s42003-020-0765-z). The start readout for a given immunotherapeutic or chemotherapeutic agent at a given concentration was the to readout for said immunotherapeutic or chemotherapeutic agent at a specified concentration. […]

[2] = test system: Circulating tumour cells (CTCs) from a patient with GI cancer (Cholangio Carcinoma, stage 4); experiment: Drug response score assay on blood sample, Example 9; parameters: key to Drug response score from blood sample, conc. 1 / Drug response score from blood sample, conc. 2 / Drug response score from blood sample, conc. 3 / Drug response score from blood sample, conc. 4: normalized drug response metric per Gupta et al. 2020; conditions: for effectiveness on Circulating Tumour Cells under laboratory conditions: GI cancer (Cholangio Carcinoma) blood sample; for Drug response score from blood sample, conc. 1: conc. 1 of each drug as in Table 27; for Drug response score from blood sample, conc. 1 / Drug response score from blood sample, conc. 2 / Drug response score from blood sample, conc. 3 / Drug response score from blood sample, conc. 4: t96h; for Drug response score from blood sample, conc. 2: conc. 2 of each drug as in Table 27; for Drug response score from blood sample, conc. 3: conc. 3 of each drug as in Table 27; for Drug response score from blood sample, conc. 4: conc. 4 of each drug as in Table 27; for Drug sensitivity as calculated by the assay, Blood: interpretation based on Drug Response Scores; for Drug response score from blood sample, conc. 1 / Drug response score from blood sample, conc. 2 / Drug response score from blood sample, conc. 3 / Drug response score from blood sample, conc. 4 / Drug sensitivity as calculated by the assay, Blood: blood sample
Method: (§2) CD45^+ cells and circulating tumour cells (CTCs) were isolated from a blood sample provided by each subject.
(§3) CD45 separation was performed by adding human CD45 microbeads (50 μl/ml blood), incubating for 15 minutes at 4° C. and then processing using an AutoMACS machine. This separates the blood sample into CD45^+ and CD45^−cells in 2 separate falcons. The falcon tubes are then centrifuged at 1200 rpm for 5 minutes.
The supernatant was removed from the CD45^+falcon tube, and the cells resuspended in DMEM with 2 μl Cell Tox, 2 μl MT and 2 μl MT. 20 μl of the resuspended CD45^+ cells was then plated in each well which will contain an immunotherapy treatment.
(§4) The supernatant was removed from the CD45^−falcon tube, and the CD45^−cells contacted with 100 μl of FcR block and 100 μl of CD326 (EpCAM) MicroBeads, followed by incubation at […] 4° C. for 30 minutes. The CD45^−cells were then processed using an AutoMACS machine to separate the EpCAM positive and negative cells into 2 separate falcon tubes. The EpCAM-cells were discarded. The supernatant was removed from the EpCAM^+ cells, and the cells resuspended in DMEM with 2 μl Cell Tox, 2 μl MT and 2 μl MT. 20 μl of the resuspended pellet was then added to all sample wells excluding a blank. After all wells are added to, a cell count was conducted on the […] to determine the number of circulating tumour cells (CTCs).
as §1
(§5) At the end of this culture period, dose response scores were calculated using a normalized drug response metric as described in Gupta et al. (Communications Biology volume 3, Article number: 42 (2020), https://doi.org/10.1038/s42003-020-0765-z). The start readout for a given immunotherapeutic or chemotherapeutic agent at a given concentration was the to readout for said immunotherapeutic or chemotherapeutic agent at a specified concentration. The end readout for a given immunotherapeutic or chemotherapeutic agent at a given concentration was the final timepoint reading (t96h) for said immunotherapeutic or chemotherapeutic agent at a specified concentration.
(§6) The positive control start readout for a given drug/concentration was the to readout for the corresponding drug at a specified concentration. The positive control end readout for the corresponding drug at a specified concentration was the final timepoint reading (t96h) for the corresponding blank well.
(§7) The negative control start and end readouts for a given immunotherapeutic or chemotherapeutic agent at a given concentration were the to and final timepoint reading (t96h) respectively for blank cell or blank immuno cell well respectively.
The sensitivity or resistance of a subject's cancer to a given immunotherapeutic or chemotherapeutic agent was determined based on the calculated drug response score as shown in Table 2. […]

[3] = test system: Circulating Tumour Cells (CTCs) from a patient with head and neck cancer (squamous cell carcinoma); experiment: Drug response score assay on CTCs from blood, Example 6
Method: as §2, §3, §4, §1, §5, §6, §7
(§8) The sensitivity or resistance of a subject's cancer to a given immunotherapeutic or chemotherapeutic agent was determined based on the calculated drug response score as shown in Table 2.
Blood samples from a patient with head and neck cancer (squamous cell carcinoma) were received on 11 Mar. 2022 and tested using a 7 drug panel.

[4] = test system: Circulating Tumour Cells (CTCs) from a patient with colon cancer (sigmoid colon cancer); experiment: Drug response score assay on CTCs from blood, Example 8; parameters: key to Drug response score, conc. 1 / Drug response score, conc. 2 / Drug response score, conc. 3 / Drug response score, conc. 4: normalized drug response metric (Gupta et al. 2020); conditions: for Drug response score, conc. 1: conc. 1 of each drug as in Table 24; for Drug response score, conc. 1 / Drug response score, conc. 2 / Drug response score, conc. 3 / Drug response score, conc. 4: CTCs, t96h; for Drug response score, conc. 2: conc. 2 of each drug as in Table 24; for Drug response score, conc. 3: conc. 3 of each drug as in Table 24; for Drug response score, conc. 4: conc. 4 of each drug as in Table 24; for Drug sensitivity as calculated by the assay (interpretation of Drug Response Scores): Table 26
Method: as §2, §3, §4
as §1, with “After” for “The different cell types were each divided equally into populations, depending on the number of drugs/concentrations to be tested and plated on a cell-culture plate pre-coated with a scaffold of polycaprolactone (PCL) electrospun fibres and incubated at 37° C., 5% CO2, for 5 to (typically 10) minutes to facilitate cell attachment. After”
as §5, §6, §7, §8
Blood samples from a patient with colon cancer (sigmoid colon cancer) were received on 8 Mar. 2022 and tested using a 9 drug panel.
Chemotherapeutic agents were tested as in Table 24.

Molecule: O=c1[nH]cc(F)c(=O)[nH]1 [5 FluoroUracil]
- effectiveness on Cancer Cells from tissue sample under laboratory conditions [1]: S+
- Drug response score, conc. 1 [1]: 0.9334
- Drug response score, conc. 2 [1]: 0.9488
- Drug response score, conc. 3 [1]: 0.9924
- Drug response score, conc. 4 [1]: 0.01222
- effectiveness on Circulating Tumour Cells under laboratory conditions [2]: S+
- Drug response score from blood sample, conc. 1 [2]: 0.4147
- Drug response score from blood sample, conc. 2 [2]: 0.341
- Drug response score from blood sample, conc. 3 [2]: 0.422
- Drug response score from blood sample, conc. 4 [2]: 0.08131

Molecule: O=c1[nH]cc(F)c(=O)[nH]1 [5FU]
- Drug sensitivity as calculated by the assay, Tissue [1]: S+
- Drug sensitivity as calculated by the assay, Blood [2]: S+

Molecule: CCCCCOC(=O)Nc1nc(=O)n([C@@H]2O[C@H](C)[C@@H](O)[C@H]2O)cc1F [Capecitabine]
- Drug response score, conc. 1 ([3]; conc. 1: Ifos 0.125 μg/ml, Gemcit 2 μg/ml, Doxo 10 ng/ml, Etop 1 μg/ml, Metho 0.5 μg/ml, Capecit 200 μg/ml, Vinor 20 μg/ml, CTCs, t96h): 0.7820
- Drug response score, conc. 2 ([3]; conc. 2: Ifos 0.25 μg/ml, Gemcit 10 μg/ml, Doxo 30 ng/ml, Etop 4 μg/ml, Metho 1 μg/ml, Capecit 300 μg/ml, Vinor 40 μg/ml, CTCs, t96h): 0.9244
- Drug response score, conc. 3 ([3]; conc. 3: Ifos 5 μg/ml, Gemcit 20 μg/ml, Doxo 90 ng/ml, Etop 20 μg/ml, Metho 2 μg/ml, Capecit 400 μg/ml, Vinor 80 μg/ml, CTCs, t96h): 0.6113
- Drug response score, conc. 4 ([3]; conc. 4: Ifos 10 μg/ml, Gemcit 40 μg/ml, Doxo 270 ng/ml, Etop 100 μg/ml, Metho 4 μg/ml, Capecit 600 μg/ml, Vinor 200 μg/ml, CTCs, t96h): 1.0037
- effectiveness on Circulating Tumour Cells under laboratory conditions ([3]; head and neck cancer CTCs): not effective
- Drug sensitivity as calculated by the assay (interpretation of Drug Response Scores) ([3]; head and neck cancer CTCs, Table 20): Resistant

Molecule: Nc1nc2[nH]cc(CCc3ccc(C(=O)N[C@@H](CCC(=O)O)C(=O)O)cc3)c2c(=O)[nH]1 [Pemetrexed]
- Drug response score, conc. 1 [4]: 5.1780
- Drug response score, conc. 2 [4]: −1.0000
- Drug response score, conc. 3 [4]: −1.0000
- Drug response score, conc. 4 [4]: −1.0000
- effectiveness on Circulating Tumour Cells under laboratory conditions ([4]; sigmoid colon cancer CTCs): S+++
- Drug sensitivity as calculated by the assay (interpretation of Drug Response Scores) ([4]; sigmoid colon cancer CTCs): Sensitive (S+++)

Molecule: Cn1nnc2c(C(N)=O)ncn2c1=O [Temozolamide]
- Drug response score, conc. 1 [4]: −1.0000
- Drug response score, conc. 2 [4]: 0.0367
- Drug response score, conc. 3 [4]: −0.1421
- Drug response score, conc. 4 [4]: −0.4687
- Drug sensitivity as calculated by the assay (interpretation of Drug Response Scores) ([4]; sigmoid colon cancer CTCs): Sensitive (S++)

Molecule: Atezolizumab
- effectiveness on Cancer Cells from tissue sample under laboratory conditions [1]: S+
- Drug sensitivity as calculated by the assay, Tissue [1]: S+
- Drug response score, conc. 1 [1]: 0.8904
- Drug response score, conc. 2 [1]: 0.9047
- Drug response score, conc. 3 [1]: 0.8647
- Drug response score, conc. 4 [1]: 0.7954
- effectiveness on Circulating Tumour Cells under laboratory conditions [2]: S++
- Drug response score from blood sample, conc. 1 [2]: 0.1037
- Drug response score from blood sample, conc. 2 [2]: 0.1499
- Drug response score from blood sample, conc. 3 [2]: 0.3493
- Drug response score from blood sample, conc. 4 [2]: 0.4391
- Drug sensitivity as calculated by the assay, Blood [2]: S++

Molecule: Bevacizumab
- Drug response score, conc. 1 [1]: 0.93
- Drug response score, conc. 2 [1]: 0.9294
- Drug response score, conc. 3 [1]: 0.932
- Drug response score, conc. 4 [1]: 0.9261
- Drug response score from blood sample, conc. 1 [2]: 0.4605
- Drug response score from blood sample, conc. 2 [2]: 1.257
- Drug response score from blood sample, conc. 3 [2]: 1.837
- Drug response score from blood sample, conc. 4 [2]: 2.21
